In patent publication US5958416A, “Heat shock protein peptides and methods for modulating autoimmune central nervous system disease” (Regents of the University of Minnesota, priority 1995, dated 1999):
“Also recorded” adds a separate entry of the source. Where two headings read alike, the source gives them in different places. No end group written: not given here.

Legend:
[1] = test system: experimental autoimmune encephalomyelitis (EAE); assay: Modulation of EAE by pre-immunization with CNP 173-184 peptide-KLH (Example 4); format: in vivo, Lewis rats
[2] = test system: IgG antibodies in CSF and sera of MS and OND patients; assay: Dot-blot analysis of patient CSF and sera for antibodies to CNP 173-184 peptide; format: binding, human
Procedure: Cerebrospinal fluid (CSF) and sera from MS patients and controls were analyzed for antibodies to the peptide derived from CNP isoform 2 (corresponding to amino acids 173-184) using dot-blot analyses. Samples from nine MS patients and five patients with other neurologic diseases (OND) were analyzed. The CNP 173-184 peptide coupled to BSA was adsorbed onto nitrocellulose membranes. Control wells received BSA alone. Two dilutions of paired spinal fluids and sera were added to the wells and the amount of antibody binding determined using peroxidase labeled anti-human IgG and an enhanced chemiluminescent assay (ECL Western Blotting Kit; Amersham International, Plc., Buckinghamshire, England). Using the public domain program, Image 1.40 (available from NIH), the integrated densities of the dots in the CNP 173-184 peptide wells and BSA wells were determined.

[3] = test system: experimental autoimmune encephalomyelitis (EAE); assay: Modulation of EAE by pre-immunization with HSP65 peptides not coupled to KLH (Example 9); format: in vivo, Lewis rats; conditions: 50 μg peptide not coupled to KLH, s.c., in IFA; 1 mg GPSC in CFA four weeks later
[4] = test system: Peripheral blood lymphocytes (PBL); format: cell-based, human
[5] = positive/tested, peptide coupled to BSA on nitrocellulose, data not shown
[6] = chi-square p, PBL, listed as #6

Leu-Lys-Lys-Leu-Lys-Pro-Gly-Leu-Glu-Lys-Asp-Phe (LKKLKPGLEKDF; also: coupled to BSA) [CNP 173-184 peptide, coupled to BSA in blots]
EAE after GPSC challenge, pre-immunization in IFA ([1]; 50 μg s.c. in IFA, GPSC in CFA five to six weeks later): suppression of EAE
p, difference in EAE severity between peptide-IFA and KLH-IFA pre-immunized rats ([1]; day 13 post GPSC-CFA immunization): < 0.02
Integrated densities in peptide wells relative to BSA wells ([2]; MS CSF): approximately twofold higher
p, MS versus OND patients with CSF antibodies to the peptide ([2]; chi square analysis): < 0.03
CSF samples with antibodies to the peptide, MS patients [2, 5]: 5/9
CSF samples with antibodies to the peptide, OND patients [2, 5]: 0/5
Number of MS patients with antibodies to the peptide in sera ([2]; sera): 3
Number of OND patients with antibodies to the peptide in sera ([2]; sera): 1

lys-gly-tyr-ile-ser-gly-tyr-phe-val-thr-asp-ala-glu-arg-gln (KGYISGYFVTDAERQ) [Peptide #6]
Protection against EAE after pre-immunization with the peptide [3]: did protect against or decrease the symptoms of EAE; also recorded: significantly decreases both the incidence and severity of EAE; also recorded: protects rats against EAE
T cell proliferative response elicited by the peptide ([4]; PBL from MS and OND patients, greater than two-fold above background considered significant): elicited specific T cell proliferative responses in some MS patients compared with OND patients
Correlation of responsiveness to the peptide with responsiveness to M. tuberculosis, OND patients ([4]; Pearson correlation, PBL): No significant correlations
p, correlation of responsiveness to the peptide with responsiveness to M. tuberculosis, DR2+ MS females ([4]; Pearson correlation, PBL): < 0.02
p, correlation of responsiveness to the peptide with responsiveness to M. tuberculosis, DR2- MS males ([4]; Pearson correlation, PBL): < 0.01
p, correlation of responsiveness to the peptide with responsiveness to M. tuberculosis, all MS patients ([4]; Pearson correlation, PBL): < 0.01
Difference in frequency of proliferative response, Group A greater than Group B: MS F vs MS M ([4]; chi-square p, PBL): greater response
Difference in frequency of proliferative response, Group A greater than Group B: MS F vs OND M ([4]; chi-square p, PBL): greater response
Difference in frequency of proliferative response, Group A greater than Group B: MS F, DR2- VS MS M, DR2- ([4]; chi-square p, PBL): responded more strongly
Difference in frequency of proliferative response, Group A greater than Group B: MS F, DR2- vs MS F, DR2+ ([4]; chi-square p, PBL): N.S.
Difference in frequency of proliferative response, Group A greater than Group B: MS M, DR2+ VS MS F, DR2+ ([4]; chi-square p, PBL): N.S.
Difference in frequency of proliferative response, Group A greater than Group B: MS F vs MS M [4, 6]: < 0.025
Difference in frequency of proliferative response, Group A greater than Group B: MS F vs OND M [4, 6]: < 0.0005
Difference in frequency of proliferative response, Group A greater than Group B: MS F, DR2- VS MS M, DR2- [4, 6]: < 0.05
